The record followed here is patent EP1000062B1, “TRICYCLIC VASOPRESSIN AGONISTS” (Wyeth, priority 1997, dated 1999).

The assay has as its system Vasopressin V2. The assay can be described thus: Vasopressin V2 agonist effects of test compounds in normal conscious water-loaded rats. It is filed as in vivo. The conditions noted are these: Sprague-Dawley (CD) rats, oral 10 mg/kg, urine collected for four hours; for Osmolality (% Increase): change in osmolality as percent of control; for Urine Volume (% decrease): vs. control. On the procedure: Vasopressin V2 Agonist Effects of Test Compounds in Normal Conscious Water-Loaded Rats:
On the day of test, rats were placed individually into metabolic cages equipped with devices to separate the feces from the urine and containers for collection of urine. Test compound or reference agent was given at an oral dose of 10 mg/kg in a volume of 10 ml /kg. […] Thirty minutes after dosing the test compound, rats were gavaged with water at 30 ml /kg into the stomach using a feeding needle. During the test, rats were not provided with water or food. Urine was collected for four hours after dosing of the test compound. At the end of four hours, urine volume was measured. […] Determinations of Na^+, K^+ and Cl^- ion were carried out using ion specific electrodes in a Beckman SYNCHRON EL-ISE Electrolyte System analyzer. […] In the screening test, two rats were used for each compound. If the difference in the urine volume of the two rats was greater than 50%, a third rat was used.

As for `Cc1cnn(-c2ccc(C(=O)N3Cc4cccn4Cc4ccccc43)c(C(F)(F)F)c2)c1` [Example 3, [4-(4-Methyl-pyrazol-1-yl)-2-trifluoromethyl-phenyl]-(5H,11H-pyrrolo[2,1-c][1,4]benzodiazepin-10-yl)-methanone], the “Osmolality (% Increase)” value is on record as 240% and the “Urine Volume (% decrease)” value worked out at 58%.

For `O=C(c1ccc(-n2cccn2)cc1C(F)(F)F)N1Cc2cccn2Cc2ccccc21` [Example 4, (4-Pyrazol-1-yl-2-trifluoromethyl-phenyl)-(5H,11H-pyrrolo[2,1-c][1,4]benzodiazepin-10-yl)-methanone], the “Osmolality (% Increase)” value came to 225% and the “Urine Volume (% decrease)” value was found to be 57%.

Regarding `O=C(c1ccc(-n2ccc(C3CC3)n2)cc1C(F)(F)F)N1Cc2cccn2Cc2ccccc21` [Example 5, [4-(3-Cyclopropyl-pyrazol-1-yl)-2-trifluoromethy-phenyl]-(5H,11H-pyrrolo[2,1-c][1,4]benzodiazepin-10-yl)-methanone], the “Osmolality (% Increase)” value is listed as 231% and the “Urine Volume (% decrease)” value stood at 56%.

Turning to `Cc1cn(-c2ccc(C(=O)N3Cc4cccn4Cc4ccccc43)c(C(F)(F)F)c2)cn1` [Example 6, [4-(4-Methyl-imidazol-1-yl)-2-trifluoromethyl-phenyl]-(5H,11H-pyrrolo[2,1-c][1,4]benzodiazepin-10-yl)-methanone], the “Osmolality (% Increase)” value is reported as 270% and the “Urine Volume (% decrease)” value is 58%.

`O=C(c1ccc(-n2cncn2)cc1C(F)(F)F)N1Cc2cccn2Cc2ccccc21` [Example 7, (5H,11H-Pyrrolo[2,1-c][1,4]benzodiazepin-10-yl)-(4-[1,2,4]triazol-1-yl-2-trifluoromethylphenyl)-methanone]: the “Osmolality (% Increase)” value is on record as 137% and the “Urine Volume (% decrease)” value stood at 13%.

For the compound `Cc1ccn(-c2ccc(C(=O)N3Cc4cccn4Cc4ccccc43)c(Cl)c2)n1` [Example 9A], the “Osmolality (% Increase)” value stood at 325% and the “Urine Volume (% decrease)” value worked out at 70%.

For `Cc1ccnn1-c1ccc(C(=O)N2Cc3cccn3Cc3ccccc32)c(Cl)c1` [Example 9B], the “Osmolality (% Increase)” value is 168% and the “Urine Volume (% decrease)” value was 21%.

On to `Cc1cnn(-c2ccc(C(=O)N3Cc4cccn4Cc4ccccc43)c(Cl)c2)c1` [Example 11], for which the “Osmolality (% Increase)” value came to 285% and the “Urine Volume (% decrease)” value came to 70%.

For the compound `Cc1cn(-c2ccc(C(=O)N3Cc4cccn4Cc4ccccc43)c(Cl)c2)cn1` [Example 12, [2-Chloro-4-(4-methyl-imidazol-1-yl)-phenyl]-(5H,11H-pyrrolo[2,1-c][1,4]benzodiazepin-10-yl)-methanone], the “Osmolality (% Increase)” value was 330% and the “Urine Volume (% decrease)” value stood at 69%.

As to `O=C(c1ccc(-n2ccc(C(F)(F)F)n2)cc1Cl)N1Cc2cccn2Cc2ccccc21` [Example 13, [2-Chloro-4-(3-trifluoromethyl-pyrazol-1-yl)-phenyl]-(5H,11H-pyrrolo[2,1-c][1,4]benzodiazepin-10-yl)-methanone], the “Osmolality (% Increase)” value was 229% and the “Urine Volume (% decrease)” value is recorded as 50%.

Consider `O=C(c1ccc(-n2cncn2)cc1Cl)N1Cc2cccn2Cc2ccccc21` [Example 14, [2-Chloro-4-(1,2,4-triazol-1-yl)-phenyl]-(5H,11H-pyrrolo[2,1-c][1,4]benzodiazepin-10-yl)-methanone], for which the “Osmolality (% Increase)” value amounted to 406% and the “Urine Volume (% decrease)” value is reported as 86%.

Take `O=C(c1ccc(-n2cccc2)cc1Cl)N1Cc2cccn2Cc2ccccc21` [Example 15, (2-Chloro-4-pyrrol-1-yl-phenyl)-(5H,11H-pyrrolo[2,1-c][1,4]benzodiazepin-10-yl)-methanone]: the “Osmolality (% Increase)” value is 38% and the “Urine Volume (% decrease)” value stood at 47%.

For the compound `O=C(c1ccc(-n2cccn2)cc1Cl)N1Cc2cccn2Cc2ccccc21` [Example 16, (2-Chloro-4-pyrazol-1-yl-phenyl)(5H,11H-Pyrrolo[2,1-c][1,4]benzodiazepin-10-yl)-methanone], the “Osmolality (% Increase)” value was 400% and the “Urine Volume (% decrease)” value is given as 88%.

`Cc1ccn(-c2ccc(C(=O)N3Cc4ccc(C)n4Cc4ccccc43)c(Cl)c2)n1` [Example 18, [2-Chloro-4-(3-methylpyrazol-1-yl)-phenyl]-(3-methyl-5H,11H-pyrrolo[2,1-c][1,4]benzodiazepin-10-yl)-methanone]: the “Osmolality (% Increase)” value turned out to be 214% and the “Urine Volume (% decrease)” value was 52%.

Consider `Cc1cnn(-c2ncc(C(=O)N3Cc4cccn4Cc4ccccc43)c(C(F)(F)F)n2)c1` [Example 21, [2-(4-Methyl-pyrazol-1-yl)-4-trifluoromethyl-pyrimidin-5-yl]-(5H,11H-pyrrolo[2,1-c][1,4]benzodiazepin-10-yl)-methanone], for which the “Osmolality (% Increase)” value was 181% and the “Urine Volume (% decrease)” value is reported as 49%.

Consider `CC(=O)c1ccc(C(=O)N2Cc3cccn3Cc3ccccc32)cc1` [Example 22, 1-[4-(5H,11H-Pyrrolo[2,1-c][1,4]benzodiazepine-10-carbonyl)-phenyl]-ethanone], for which the “Osmolality (% Increase)” value was determined as 322% and the “Urine Volume (% decrease)” value came to 80%.

For the compound `O=C(c1ccc(-c2cc[nH]n2)cc1)N1Cc2cccn2Cc2ccccc21` [Example 24, [4-(1H-Pyrazol-3-yl)-phenyl]-(5H,11H-pyrrolo[2,1-c][1,4]benzodiazepin-10-yl)-methanone], the “Osmolality (% Increase)” value is on record as 159% and the “Urine Volume (% decrease)” value is 47%.

For `Cn1ccc(-c2ccc(C(=O)N3Cc4cccn4Cc4ccccc43)cc2)n1` [Example 25, [4-(1-Methyl-1H-pyrazolyl-3-yl)-phenyl]-(5H,11H-pyrrolo[2,1-c][1,4]-benzodiazepin-10-yl)-methanone], the “Osmolality (% Increase)” value came to 979% and the “Urine Volume (% decrease)” value amounted to 87%.

On to `CCn1ccc(-c2ccc(C(=O)N3Cc4cccn4Cc4ccccc43)cc2)n1` [Example 26, [4-(1-Ethyl-1H-pyrazol-3-yl)-phenyl]-(5H,11H-pyrrolo[2,1-c][1,4]-benzodiazepin-10-yl)-methanone], for which the “Osmolality (% Increase)” value turned out to be 279% and the “Urine Volume (% decrease)” value was found to be 54%.

Take `CCCn1ccc(-c2ccc(C(=O)N3Cc4cccn4Cc4ccccc43)cc2)n1` [Example 27, [4-(1-Propyl-1H-pyrazol-3-yl)-phenyl]-(5H,11H-pyrrolo[2,1-c][1,4]-benzodiazepin-10-yl)-methanone]: the “Osmolality (% Increase)” value turned out to be 183% and the “Urine Volume (% decrease)” value came to 76%.

In the case of `CCCCn1ccc(-c2ccc(C(=O)N3Cc4cccn4Cc4ccccc43)cc2)n1` [Example 28, [4-(1-Butyl-1H-pyrazol-3-yl)-phenyl]-(5H,11H-pyrrolo[2,1-c][1,4]-benzodiazepin-10-yl)-methanone], the “Osmolality (% Increase)” value stood at 37% and the “Urine Volume (% decrease)” value came out at 75%.

Consider `COCn1ccc(-c2ccc(C(=O)N3Cc4cccn4Cc4ccccc43)cc2)n1` [Example 29, [4-(1-methoxymethyl-1H-pyrazol-3-yl)-phenyl]-(5H,11H-pyrrolo[2,1-c][1,4]-benzodiazepin-10-yl)-methanone], for which the “Osmolality (% Increase)” value was 305% and the “Urine Volume (% decrease)” value was 66%.

As for `CCC(=O)n1ccc(-c2ccc(C(=O)N3Cc4cccn4Cc4ccccc43)cc2)n1` [Example 31, 1-{3-[4-(5H,11H-Pyrrolo[2,1-c][1,4]benzodiazepine-10-carbonyl)-phenyl]-pyrazol-1-yl}-propan-1-one], the “Osmolality (% Increase)” value is recorded as 298% and the “Urine Volume (% decrease)” value turned out to be 72%.

For the compound `O=C(c1ccc(-c2ccn(C(=O)C3CC3)n2)cc1)N1Cc2cccn2Cc2ccccc21` [Example 32, [4-(1-Cyclopropanecarbonyl-1H-pyrazol-3-yl)-phenyl]-(5H,11H-pyrrolo[2,1-c][1,4]benzodiazepin-10-yl)-methanone], the “Osmolality (% Increase)” value was found to be 373% and the “Urine Volume (% decrease)” value is recorded as 77%.

With `CCCC(=O)n1ccc(-c2ccc(C(=O)N3Cc4cccn4Cc4ccccc43)cc2)n1` [Example 33, 1-{3-[4-(5H,11H-Pyrrolo[2,1-c][1,4]benzodiazepine-10-carbonyl)-phenyl]-pyrazol-1-yl}-butan-1-one], the “Osmolality (% Increase)” value is 362% and the “Urine Volume (% decrease)” value amounted to 68%.

For `Cc1ccc(F)cc1C(=O)n1ccc(-c2ccc(C(=O)N3Cc4cccn4Cc4ccccc43)cc2)n1` [Example 35, {4-[1-(5-Fluoro-2-methyl-benzoyl)-1H-pyrazol-3-yl]-phenyl}-(5H,11H-pyrrolo[2,1-c][1,4]benzodiazepin-10-yl)-methanone], the “Osmolality (% Increase)” value was found to be 308% and the “Urine Volume (% decrease)” value stood at 63%.

In the case of `O=C(c1ccc(-c2ccn(C(=O)c3ccc(F)cc3Cl)n2)cc1)N1Cc2cccn2Cc2ccccc21` [Example 37, {4-[1-(2-Chloro-4-fluoro-benzoyl)-1H-pyrazol-3-yl]-phenyl}-(5H,11H-pyrrolo[2,1-c][1,4]benzodiazepin-10-yl]methanone], the “Osmolality (% Increase)” value turned out to be 370% and the “Urine Volume (% decrease)” value came to 71%.

For the compound `O=C(c1ccc(-c2ccn(C(=O)Cc3ccc(Cl)cc3Cl)n2)cc1)N1Cc2cccn2Cc2ccccc21` [Example 39, 2-(2,4-Dichloro-phenyl)-1-{3-[4-(5H,11H-pyrrolo[2,1-c][1,4]benzodiazepine-10-carbonyl)-phenyl]-pyrazol-1-yl}-ethanone], the “Osmolality (% Increase)” value is on record as 253% and the “Urine Volume (% decrease)” value came to 69%.
